According to patent publication US20160050919A1, “ACETYL-COA CARBOXYLASE INHIBITOR HERBICIDE AND AUXIN HERBICIDE FORMULATIONS” (Nufarm Americas, Inc., priority 2014, published 2016):

Experiments:
[1] = Stability of active ingredients in the formulation, two weeks at 54° C.; settings: for % wt after 2 week at 54° C. / Initial % wt: formulation of Table 5 (emulsion)
[2] = Stability of fenoxaprop-p-ethyl in the formulation at ambient temperature (~22° C.); assay type: physicochemical
Experimental: The formulation described in table 1 was tested for stability of all three active ingredients for two weeks at 54° C.

[3] = formulation of table 1 (micro emulsion, pH 6.7), two weeks at 54° C.
[4] = formulation of table 3 (emulsifiable concentrate), two weeks at 54° C.

| Structure (SMILES) | % wt after 2 week at 54° C. [1] | Initial % wt [1] | stability of active ingredient [1, 3] | stability of active ingredient [1, 4] | other results |
| --- | --- | --- | --- | --- | --- |
| Cc1cc(Cl)ccc1O[C@@H](C)C(=O)O [MCPP-p] | 1.39 % wt | 1.53 % wt | – | – | – |
| CCOC(=O)[C@@H](C)Oc1ccc(Oc2nc3ccc(Cl)cc3o2)cc1 [fenoxaprop-p-ethyl, Fenoxaprop-p-ethyl] | 0.60 % wt | 0.60 % wt | – | – | recovered after storage [1, 3]: 1%; fenoxaprop-p-ethyl content, 2-week ([2]; formulation of table 1, 2 weeks): 2.61 wt %; fenoxaprop-p-ethyl content, 4-week ([2]; formulation of table 1, 4 weeks): 2.24 wt %; fenoxaprop-p-ethyl content, 6-week ([2]; formulation of table 1, 6 weeks): 2.15 wt %; fenoxaprop-p-ethyl content, 8-week ([2]; formulation of table 1, 8 weeks): 1.91 wt %; fenoxaprop-p-ethyl content, 12-week ([2]; formulation of table 1, 12 weeks): 1.28 wt %; fenoxaprop-p-ethyl content, 14-week ([2]; formulation of table 1, 14 weeks): 0.87 wt %; fenoxaprop-p-ethyl content, Initial ([2]; formulation of table 1, initial): 2.82 wt % |
| COc1c(Cl)ccc(Cl)c1C(=O)O [Dicamba] | 0.45 % wt | 0.64 % wt | remained unchanged | remained unchanged | – |
| CCCCCCC(C)OC(=O)COc1nc(F)c(Cl)c(N)c1Cl (centres unmarked) [fluroxypyr MHE, Fluroxypyr MHE] | – | – | remained unchanged | remained unchanged | – |
| O=C(O)COc1nc(Cl)c(Cl)cc1Cl [Triclopyr, Triclopyr ACID] | 1.75 % wt | 1.78 % wt | – | – | – |
